Source: patent publication US20210371413A1, “POLYCYCLIC AMIDES AS CYTOTOXIC AGENTS” (FEMTOGENIX LIMITED, priority 2018, published 2021)
≈ marks a conversion by molar mass, not a printed value. Like-named read-outs stand apart in the source and are kept apart here.

How the values were obtained:
Type in all cases: cell-based
E. coli K12 = test: MIC assay, E. coli K12; conditions: Escherichia coli, K12, E. coli K12 (Gram-negative), overnight (16-20 hour) incubation
Protocol: (§1) The antimicrobial activity of a selection of compounds were evaluated in a Gram-negative, Gram-positive and multi-resistant bacteria using the standard minimum inhibitory concentration (MIC) assay for an overnight (16-20 hour) incubation period. Commercially marketed antibiotics (Table 3) were used as positive controls during the study.
(§2) Mueller-Hinton broth (MH Broth) (Sigma-Aldrich; Millipore, cat. no. 70192) and Mueller-Hinton agar (MHA) (Sigma-Aldrich; Millipore, cat. no. 70191) were prepared as per manufacturer's instructions and sterilized by autoclaving. Approximately 20 mL of MHA was poured onto 15×100 mm petri dishes and allowed to set. Agar plates were then stored in plastic bags in an inverted position at 4° C.
(§3) Bacterial strains were provided in the form of a glycerol stock, stored at −80° C. For the purpose of preparation of bacterial suspension, appropriate strains were removed from −80° C. storage onto dry ice and not allowed to freeze-thaw.
(§4) Stock solutions of 16, 45 and 73 were provided in DMSO at 1.28 mg/mL concentration. From this stock solution, working solutions of the desired concentration were prepared by diluting with MHB.
(§5) MIC assay methodology was adapted from previously published work.
(§6) Bacterial isolate to be tested was streaked onto a nutrient-rich MH agar plate and incubated overnight at 37° C. in order to obtain single colonies.
(§7) After overnight incubation, single colonies with the same morphological appearance were chosen from the agar plate. These were touched using a sterile loop and transferred into a tube containing 10 mL of a MH broth. They were then mixed using vortex mixer and incubated at 35-37° C. in a shaker at 200 r.p.m. overnight.
(§8) Determination of OD600 and cfu/mL count OD600 (the optical density of a sample measured at a wavelength of 600 nm) of the overnight culture was measured. Because of the loss of linearity at OD600 values […], it was necessary to dilute the sample until the OD600 value was below 1.0. For all tested bacteria, a dilution of 1:10 was appropriate (100 μL in 900 μL broth).
(§9) The overnight culture was then diluted 1:100 using sterile tubes and MH broth (dilution: 10^−2). Serial dilution was then performed six times until dilution of 10^−8 was reached. 100 μL of dilutions 10^−7 and 10^−8 were plated onto MH agar plates in triplicate using a sterile cell spreader and incubated overnight at 37° C.
(§10) After overnight incubation, colonies on plates were counted and cfu per mL calculated. The following formula was applied: […]
For the generation of overnight cultures to be used for preparation of the bacterial suspension for MIC tests, a single colony of bacteria was selected using a sterile loop and a sterile tube with MH broth was inoculated followed by overnight incubation at […] in a shaker set to 200 r.p.m.
After overnight incubation, the OD600 was measured and the overnight culture was diluted accordingly to obtain 1×10^8 cfu/mL.
Free payload dilutions were prepared as per Table 4.
96-well sterile microtiter plates were used for MIC assay. The plate was filled with the respective free payload or positive control antibiotic concentrations in triplicate. 100 μL of broth was pipetted in the sterility control well (SC, column 12) and 50 μL in the growth control well (GC, column 11).
1×10^8 cfu/mL bacterial suspension was diluted 1:100 and 50 μL added to each well apart from SC. […]
(§11) The 96-well plates were read using a SpectraMax plate reader at an absorbance of 600 nm. […]

[1] = tested on: Klebsiella pneumoniae KP4631; test: MIC assay, Klebsiella pneumoniae KP4631
Protocol: as §1, §2, §3, §4, §5, §6, §7, §8, §9, §10
(§12) After overnight incubation, the OD600 was measured and the overnight culture was diluted accordingly to obtain 1×10^8 cfu/mL. […]
as §11

EMRSA 16 = test: MIC assay, EMRSA 16; conditions: Staphylococcus aureus
Protocol: as §1, §2, §3, §4, §5, §6, §7, §8, §9, §10, §12, §11

A431 (Skin) = test: In vitro cytotoxicity, MTT assay, A431; conditions: Homo sapiens, read-out: Cytotoxicity
Protocol: (§13) The in vitro cytotoxicity of a selection of compounds were evaluated in a panel of cell lines using the standard MTT assay for a 72 hour incubation period (Table 2). Free payloads produced cytotoxicities in the nanomolar range.
(§14) Tumor cell lines were maintained in RPMI1640 medium supplemented with 10% heat-inactivated fetal bovine serum, 2 mM L-glutamine and 1 mM sodium pyruvate. 1800 cells per well were seeded in a volume of 180 μl in a 96-well flat bottom polystyrene plate. The cells were allowed to adhere overnight at 37° C. in a CO2 incubator. Ligands were initially formulated in DMSO, and stocks stored at −80° C. They were then further formulated at lox concentration in RPMI1640 medium. 20 ul of diluted samples were added into each treatment well. On each plate, blank wells with no cells, and untreated wells containing cells, were included. Plates were then cultured at 37° C. in a CO2 incubator for 72 hrs. Cytotoxicity was evaluated using a tetrazolium salt-based assay, the MTT assay. After 72 hours, the supernatant was removed from each well and 200 μl of a sterile filtered 500 μg/ml MTT solution in water added to each well. The plates were then incubated at 37° C. in a CO2 incubator for 4 hrs. The supernatant was then removed and the formazan crystals formed solubilized by adding 150 μl of DMSO to each well. The plate was then read on a plate reader at 540 nm, and percentage cell survival calculated as follows: ((mean absorbance treated wells at concentration x−mean absorbance blank wells)+(mean absorbance untreated wells at concentration x−mean absorbance blank wells))×100. Data were plotted as concentration in nM vs. % cell survival in Microsoft Excel, and IC50 values (concentration where cell survival is reduced by a half) were determined from the graph.

REH (ALL) = test: In vitro cytotoxicity, MTT assay, REH; conditions: read-out: Cytotoxicity
Protocol: as §13, §14

U138-MG (Glioblastoma) = test: In vitro cytotoxicity, MTT assay, U138-MG; conditions: Homo sapiens, read-out: Cytotoxicity
Protocol: as §13, §14

[2] = A-431, A431 (Skin), MTT, 72 hour incubation
[3] = REH (ALL), MTT, 72 hour incubation
[4] = U138-MG (Glioblastoma), MTT, 72 hour incubation

COC(=O)c1cc(-c2ccc(NC(=O)c3cc(NC(=O)CCCOc4cc5c(cc4OC)C(=O)N4CCCC[C@H]4CN5)cn3C)cc2)cn1C [Compound 45, Methyl (S)-4-(4-(4-(4-((2-methoxy-12-oxo-5,6,6a,7,8,9,10,12-octahydrobenzo[e]pyrido[1,2-a][1,4]diazepin-3-yl)oxy)butanamido)-1-methyl-1H-pyrrole-2-carboxamido)phenyl)-1-methyl-1H-pyrrole-2-carboxylate]
MIC (E. coli K12): > 128 µg/mL
MIC ([1]; Klebsiella pneumoniae, KP4631): > 128 µg/mL
MIC (EMRSA 16): 0.5 µg/mL (≈ 0.732 µM)

COC(=O)c1nc2cc(NC(=O)c3nc(NC(=O)CCCOc4cc5c(cc4OC)C(=O)N4CCCC[C@H]4CN5)cn3C)ccc2o1 [Compound 61, Methyl (S)-5-(4-(4-((2-methoxy-12-oxo-5,6,6a,7,8,9,10,12-octahydrobenzo[e]pyrido[1,2-a][1,4]diazepin-3-yl)oxy)butanamido)-1-methyl-1H-imidazole-2-carboxamido)benzo[d]oxazole-2-carboxylate]
IC50 (A431 (Skin); [2]): > 1000 nM
IC50 (REH (ALL); [3]): > 1000 nM
IC50 (U138-MG (Glioblastoma); [4]): > 1000 nM

COc1cc2c(cc1OCCCC(=O)Nc1cc(C(=O)Nc3ccc(-c4cc(C(=O)Nc5ccccc5)n(C)c4)cc3)n(C)c1)NC[C@@H]1CCCCN1C2=O [Compound 67, (S)-4-(4-((2-Methoxy-12-oxo-5,6,6a,7,8,9,10,12-octahydrobenzo[e]pyrido-[1,2-a][1,4]diazepin-3-yl)oxy)butanamido)-1-methyl-N-(4-(1-methyl-5-(phenylcarbamoyl)-1H-pyrrol-3-yl)phenyl)-1H-pyrrole-2-carboxamide]
IC50 (A431 (Skin); A-431, 72 h): 25.9 nM
IC50 (REH (ALL); 72 h): 29.4 nM
IC50 (U138-MG (Glioblastoma); U138-MG, 72 h): 57.2 nM

COc1cc2c(cc1OCCCC(=O)Nc1cc(C(=O)Nc3ccc(-c4cc(C(=O)Nc5ccc(NC(C)=O)cc5)n(C)c4)cc3)n(C)c1)NC[C@@H]1CCCCN1C2=O [Compound 70, (S)—N-(4-Acetamidophenyl)-4-(4-(4-(4-((2-methoxy-12-oxo-5,6,6a,7,8,9,10, 12-octahydrobenzo[e]pyrido[1,2-a][1,4]diazepin-3-yl)oxy)butanamido)-1-methyl-1H-pyrrole-2-carboxamido)phenyl)-1-methyl-1H-pyrrole-2-carboxamide]
IC50 (A431 (Skin); [2]): 11.3 nM
IC50 (REH (ALL); [3]): 42.5 nM
IC50 (U138-MG (Glioblastoma); [4]): 93.6 nM

COc1cc2c(cc1OCCCC(=O)Nc1cc(C(=O)Nc3ccc(-c4cc(C(=O)Nc5ccncc5)n(C)c4)cc3)n(C)c1)NC[C@@H]1CCCCN1C2=O [Compound 73, (S)-4-(4-((2-Methoxy-12-oxo-5,6,6a,7,8,9,10,12-octahydrobenzo[e]pyrido-[1,2-a][1,4]diazepin-3-yl)oxy)butanamido)-1-methyl-N-(4-(1-methyl-5-(pyridin-4-ylcarbamoyl)-1H-pyrrol-3-yl)phenyl)-1H-pyrrole-2-carboxamide]
IC50 (A431 (Skin); [2]): 144 nM
MIC (E. coli K12): 2 µg/mL (≈ 2.69 µM)
IC50 (REH (ALL); [3]): 37.5 nM
MIC ([1]; Klebsiella pneumoniae, KP4631): 4 to 8 µg/mL (≈ 5.37 to 10.7 µM)
IC50 (U138-MG (Glioblastoma); [4]): 301 nM
MIC (EMRSA 16): 0.5 µg/mL (≈ 0.671 µM)

COc1cc2c(cc1OCCCC(=O)Nc1cc(C(=O)Nc3ccc(-c4cc(C(=O)Nc5ccc(N)cc5)n(C)c4)cc3)n(C)c1)NC[C@@H]1Cc3ccccc3N1C2=O [Compound 106, (S)—N-(4-Aminophenyl)-4-(4-(4-(4-((8-methoxy-6-oxo-11,12,12a,13-tetrahydro-6H-benzo[5,6][1,4]diazepino[1,2-a]indol-9-yl)oxy)butanamido)-1-methyl-1H-pyrrole-2-carboxamido)phenyl)-1-methyl-1H-pyrrole-2-carboxamide]
IC50 (A431 (Skin); [2]): 26.7 nM
IC50 (REH (ALL); [3]): 24 nM
IC50 (U138-MG (Glioblastoma); [4]): 84 nM

COc1cc2c(cc1OCCCC(=O)Nc1cc(C(=O)Nc3ccc(-c4cc(C(=O)Nc5ccc(N)cc5)n(C)c4)cc3)n(C)c1)NC[C@@H]1Cc3ccccc3CN1C2=O [Compound 119, (S)—N-(4-Aminophenyl)-4-(4-(4-(4-((2-methoxy-14-oxo-5,6,6a,7,12,14-hexahydrobenzo[5,6][1,4]diazepino[1,2-b]isoquinolin-3-yl)oxy)butanamido)-1-methyl-1H-pyrrole-2-carboxamido)phenyl)-1-methyl-1H-pyrrole-2-carboxamide]
IC50 (A431 (Skin); [2]): 43.1 nM
IC50 (REH (ALL); [3]): 173 nM
IC50 (U138-MG (Glioblastoma); [4]): 266 nM

COC(=O)c1cc(-c2ccc(NC(=O)c3cc(NC(=O)CCCOc4cc5c(cc4OC)C(=O)N4Cc6ccccc6C[C@H]4CN5)cn3C)cc2)cn1C [Compound 121, Methyl (S)-4-(4-(4-(4-((2-methoxy-14-oxo-5,6,6a,7,12,14-hexahydrobenzo-[5,6][1,4]diazepino[1,2-b]isoquinolin-3-yl)oxy)butanamido)-1-methyl-1H-pyrrole-2-carboxamido)phenyl)-1-methyl-1H-pyrrole-2-carboxylate]
IC50 (A431 (Skin); [2]): 13.4 nM
IC50 (REH (ALL); [3]): 11.6 nM
IC50 (U138-MG (Glioblastoma); [4]): 43.8 nM

NC[C@H]1O[C@H](O[C@H]2[C@H](O)[C@@H](O[C@H]3O[C@H](CO)[C@@H](O)[C@H](N)[C@H]3O)[C@H](N)C[C@@H]2N)[C@H](O)[C@@H](O)[C@@H]1O [Kanamycin, reference compound]
MIC (E. coli K12; read-out: MIC): 2 to 4 µg/mL (≈ 4.13 to 8.26 µM)

CN[C@H](CC(C)C)C(=O)N[C@H]1C(=O)N[C@@H](CC(N)=O)C(=O)N[C@H]2C(=O)N[C@H]3C(=O)N[C@H](C(=O)N[C@H](C(=O)O)c4cc(O)cc(O)c4-c4cc3ccc4O)[C@H](O)c3ccc(c(Cl)c3)Oc3cc2cc(c3O[C@@H]2O[C@H](CO)[C@@H](O)[C@H](O)[C@H]2O[C@H]2C[C@](C)(N)[C@H](O)[C@H](C)O2)Oc2ccc(cc2Cl)[C@H]1O [Vancomycin, reference compound]
MIC (EMRSA 16; EMRSA 16 (Gram-positive), overnight (16-20 hour) incubation, read-out: MIC): 1 µg/mL (≈ 0.69 µM)

Gentamicin [reference compound]
MIC ([1]; Klebsiella pneumoniae KP4631 (multi-resistant), overnight (16-20 hour) incubation): 1 to 2 µg/mL
